From patent EP1316317A1, “Hydrosoluble mixtures of cyproterone and/or an ester of it, processes to obtain them and uses thereof” (University of Liege, priority 2001, dated 2003)
Several values for one entry are separate records, joined by “and”; a condition that tells them apart may be missing. Equal values may be shown once.

Tests used:
[1] = Stability of CPA in aqueous solution, alone or as complex with RMβCD (HPLC); type: physicochemical
Procedure: Les complexes sont formés par ajout de 2 ml de solution aqueuse de RMβCD à 30 mg de CPA. Des solutions de RMβCD à différentes concentrations ont été utilisées: 12,5; 25; 50; 100 et 200 mM. Après agitation pendant 24 heures à 25°C, ces solutions sont filtrées sur filtre en PVDF de 0,45 µm (Millipore, Millex HV 0,45 µm).
Les solutions de référence de CPA sont préparées en ajoutant 2 ml de solution aqueuse à 30 mg de CPA. Après agitation pendant 24 heures à 25°C, ces solutions sont filtrées sur filtre en PVDF de 0,45 µm (Millipore, Millex HV 0,45 µm).
(§1) Les échantillons sont conservés dans des conditions ambiantes (20°C) pendant 3 mois.
La concentration en CPA contenu dans les solutions de CPA seul ou sous forme de complexe est dosée par HPLC au temps 0, après 1 mois et après 3 mois.
(§2) Les conditions chromatographiques sont telles qu'utilisées précédemment.

[2] = Adsorption of CPA on cellulose and PVDF filters (recovery after filtration); type: physicochemical; settings: CPA 2 µg/ml (100 µg/ml diluted 50-fold), CD 10 mM
Procedure: Les complexes ont été préparés en diluant 50 fois une solution mère de CPA à 100 µg/ml dans un mélange eau/acétonitrile (ACN) 50/50, avec une solution aqueuse de cyclodextrine à 10 mM. Les différentes cyclodextrines utilisées sont la β-CD, la γCD, l'HPβCD, l'HPγCD et la RMβCD. Ces échantillons sont agités au vortex pendant au moins 1 minute. Etant donné la faible proportion de CPA par rapport à la concentration en cyclodextrine et le CPA étant déjà solubilisé dans le milieu, il n'est pas nécessaire d'agiter 24 heures à 25°C pour obtenir le complexe, ce dernier étant formé très rapidement.
Une solution de référence contenant seulement du CPA est préparée en diluant 50 fois la solution mère de CPA à 100 µg/ml dans un mélange eau/acétonitrile 50/50, avec de l'eau purifiée.
Chaque essai est répété à trois reprises. Ces échantillons sont ensuite filtrés en partie sur filtre en ester de cellulose et en partie sur filtre en PVDF. Les échantillons sont dosés avant et après filtration de façon à pouvoir calculer le pourcentage de récupération après filtration.

[3] = Stability of CPA in aqueous solution, alone or as complex with βCD (HPLC); type: physicochemical
Procedure: Un complexe est formé par ajout de 2 ml de solution aqueuse de βCD 10 mM à 20 mg de CPA. Après agitation pendant 24 heures à 25°C, ces solutions sont filtrées sur filtre en PVDF de 0,45 µm (Millipore, Millex HV 0,45 µm). La formation du complexe est effectuée sur 8 échantillons différents.
Les solutions de référence de CPA sont préparées en ajoutant 2 ml de solution aqueuse à 20 mg de CPA. Après agitation pendant 24 heures à 25°C, ces solutions sont filtrées sur filtre en PVDF de 0,45 µm. 8 échantillons sont préparés.
as §1
La concentration en CPA contenue dans les solutions de CPA seul ou sous forme de complexe est dosée par HPLC au temps 0, après 1 mois et après 3 mois.
L'appareillage et les conditions chromatographiques sont ceux tels qu'utilisés dans l'Exemple 3.

[4] = water; background statement, no method given; cited from earlier work
[5] = Phase-solubility diagram of CPA in aqueous cyclodextrin solutions (excess CPA, HPLC assay of filtrate); type: physicochemical; settings: for Concentration en CPA (Solubilité du CPA en présence de HPβCD) / Concentration en CPA (Solubilité du CPA en présence de HPγCD) / Concentration en CPA (Solubilité du CPA en présence de RMβCD) / Concentration en CPA (Solubilité du CPA en présence de SBEβCD) / Concentration en CPA (Solubilité du CPA en présence de βCD) / Concentration en CPA (Solubilité du CPA en présence de γCD): 24 h at 25°C
Procedure: Les diagrammes de solubilité sont effectués en ajoutant un excès de CPA à des solutions de CD de concentration croissante. Après 24 heures d'agitation dans des bains thermostatisés à 25°C, ces solutions sont filtrées et la quantité de CPA solubilisée est dosée par HPLC.
Pesée de minimum 30 mg de CPA et ajout de 2 ml de solution de CD. Pour chaque concentration de CD, les essais sont répétés au moins deux fois. Des essais sont également effectués avec une solution aqueuse sans CD.
Les échantillons sont mis en agitation dans des bains thermostatisés à 25°C pendant 24 heures. Ensuite, ces échantillons sont filtrés sur filtre en polyvinyldifluoridène (PVDF) de 0,45 µm (Millipore, Millex HV 0,45 µm) et la concentration de CPA dans les filtrats est dosée par HPLC.
• Echantillonneur automatique Merck L-7200, Détecteur UV Merck L-7400, Pompe Merck L-7100 et intégrateur Merck D-2500.
• Colonne : Lichrospher RP18 (5 µm) 125 mm • Phase mobile : ACN/H2O 50/50 • Débit : 1,5 ml/min • Température : 25°C • Longueur d'onde : 282 nm • Etalon interne : propylparaben.

[6] = Stability of CPA in alkaline medium (stress conditions), alone or complexed with CDs (HPLC); type: physicochemical; settings: CD 100 mM
Procedure: Les complexes sont préparés en ajoutant 2 ml de solution aqueuse de CD à 20 mg de CPA. Les solutions de CD utilisées pour préparer ces complexes sont des solutions de HPβCD, de HPγCD ou de RMβCD à une concentration de 100 mM. Après agitation pendant 24 heures à 25°C, ces solutions sont filtrées sur filtre en PVDF de 0,45 µm (Millipore, Millex HV 0,45 µm).
Les solutions de référence de CPA sont préparées en ajoutant 2 ml de solution aqueuse à 20 mg de CPA. Après agitation pendant 24 heures à 25°C, ces solutions sont filtrées sur filtre en PVDF de 0,45 µm (Millipore, Millex HV 0,45 µm).
Chaque essai est répété à 3 reprises et les échantillons sont conservés dans des étuves à température contrôlée à 25°C pendant 1 mois.
La concentration en CPA contenu dans les solutions de CPA seul ou sous forme de complexe est dosée par HPLC au temps 0 et après 1 mois et le pH des solutions est mesuré après 1 mois.
as §2
Après 1 mois, la libération de substances alcalines provenant des flacons a communiqué un pH alcalin aux solutions. Ce pH a été mesuré et varie entre 8 et 9 dans les différentes solutions. Ce pH alcalin a provoqué la dégradation de l'acétate de cyprotérone, par hydrolyse de la fonction ester.

[7] = CPA concentration at time 0, 1440 min

Substance: acétate de cyprotérone [CPA]
- Conc. t1 ([1]; CPA concentration after 1 month at ambient conditions (20°C)): 2,2 µg/ml
- Conc. t0 [1, 7]: 2,7 µg/ml
- Pourcentage t1 mois ([1]; CPA remaining after 1 month at 20°C, 43800 min): 83,7%
- Pourcentage t3 mois ([1]; CPA remaining after 3 months at 20°C, 131400 min): 77,1%
- Pourcentage de CPA récupéré après filtration sur PVDF, Moyenne ([2]; PVDF filter): 88,7%
- Pourcentage de CPA récupéré après filtration sur acétate de cellulose, Moyenne ([2]; cellulose filter): 2,9%
- CPA retrouvé après 1 mois, Conc. ([3]; after 1 month at ambient conditions (20°C)): 2,2 µg/ml
- CPA retrouvé après 1 mois, Pourcentage moyen CPA ([3]; after 1 month at ambient conditions (20°C), relative to time 0, 43800 min): 84,6%
- CPA retrouvé après 3 mois, Conc. ([3]; after 3 months at ambient conditions (20°C)): 2,1 µg/ml
- CPA retrouvé après 3 mois, Pourcentage moyen CPA ([3]; after 3 months at ambient conditions (20°C), relative to time 0, 131400 min): 79,3%
- CPA au temps 0, Conc. ([3]; time 0, βCD 10 mM for the complex, n=8, 1440 min): 2,6 µg/ml
- solubilité de l'acétate de cyprotérone dans l'eau [4]: ~2 µg/mL
- Concentration en CPA (Solubilité du CPA en présence de HPβCD) ([5]; HPβCD 25 mM): 308,0 µg/ml
- Concentration en CPA (Solubilité du CPA en présence de HPβCD) ([5]; HPβCD 50 mM): 629,9 µg/ml
- Concentration en CPA (Solubilité du CPA en présence de HPβCD) ([5]; HPβCD 100 mM): 1188,6 µg/ml
- Concentration en CPA (Solubilité du CPA en présence de HPβCD) ([5]; HPβCD 200 mM): 2648,2 µg/ml
- Concentration en CPA (Solubilité du CPA en présence de HPβCD) ([5]; HPβCD 12,5 mM): 147,1 µg/ml
- Concentration en CPA (Solubilité du CPA en présence de HPγCD) ([5]; HPγCD 25 mM): 282,5 µg/ml
- Concentration en CPA (Solubilité du CPA en présence de HPγCD) ([5]; HPγCD 50 mM): 578,9 µg/ml
- Concentration en CPA (Solubilité du CPA en présence de HPγCD) ([5]; HPγCD 100 mM): 1512,0 µg/ml
- Concentration en CPA (Solubilité du CPA en présence de HPγCD) ([5]; HPγCD 200 mM): 4291,1 µg/ml
- Concentration en CPA (Solubilité du CPA en présence de HPγCD) ([5]; HPγCD 12,5 mM): 118,7 µg/ml
- Concentration en CPA (Solubilité du CPA en présence de RMβCD) ([5]; RMβCD 25 mM): 430,9 µg/ml
- Concentration en CPA (Solubilité du CPA en présence de RMβCD) ([5]; RMβCD 50 mM): 1169,9 µg/ml
- Concentration en CPA (Solubilité du CPA en présence de RMβCD) ([5]; RMβCD 100 mM): 3222,1 µg/ml
- Concentration en CPA (Solubilité du CPA en présence de RMβCD) ([5]; RMβCD 200 mM): 9598,7 µg/ml
- Concentration en CPA (Solubilité du CPA en présence de RMβCD) ([5]; RMβCD 12,5 mM): 176,9 µg/ml
- Concentration en CPA (Solubilité du CPA en présence de SBEβCD) ([5]; SBEβCD 25 mM): 461,8 µg/ml
- Concentration en CPA (Solubilité du CPA en présence de SBEβCD) ([5]; SBEβCD 50 mM): 860,9 µg/ml
- Concentration en CPA (Solubilité du CPA en présence de SBEβCD) ([5]; SBEβCD 100 mM): 1475,2 µg/ml
- Concentration en CPA (Solubilité du CPA en présence de SBEβCD) ([5]; SBEβCD 200 mM): 2034,1 µg/ml
- Concentration en CPA (Solubilité du CPA en présence de SBEβCD) ([5]; SBEβCD 12,5 mM): 243,9 µg/ml
- solubilité du CPA sans cyclodextrine ([5]; water without cyclodextrin, 24 h agitation at 25°C, 1440 min): < 3 µg/ml and 2,6 µg/ml
- Concentration en CPA (Solubilité du CPA en présence de βCD) ([5]; βCD 5 mM): 28,8 µg/ml
- Concentration en CPA (Solubilité du CPA en présence de βCD) ([5]; βCD 10 mM): 56,7 µg/ml
- Concentration en CPA (Solubilité du CPA en présence de βCD) ([5]; βCD 15 mM): 86,5 µg/ml
- Concentration en CPA (Solubilité du CPA en présence de γCD) ([5]; γCD 25 mM): 436,6 µg/ml
- Concentration en CPA (Solubilité du CPA en présence de γCD) ([5]; γCD 50 mM): 1041,0 µg/ml
- Concentration en CPA (Solubilité du CPA en présence de γCD) ([5]; γCD 100 mM): 2368,9 µg/ml
- Concentration en CPA (Solubilité du CPA en présence de γCD) ([5]; γCD 200 mM (so in the source)): 2266,8 µg/ml
- Concentration en CPA (Solubilité du CPA en présence de γCD) ([5]; γCD 12,5 mM): 195,2 µg/ml
- Conc. t1 mois ([6]; CPA concentration after 1 month at 25°C, alkaline pH 8 to 9): 0,4 µg/ml
- Conc. t0 [6, 7]: 2,3 µg/ml
- Pourcentage CPA après 1 mois ([6]; after 1 month at 25°C, alkaline pH 8 to 9, 43800 min): 17,6%
